# Measurements reported in patent US20080287375A1, “Selective Glycosidase Inhibitors, Methods of Making Inhibitors, and Uses Thereof” (SIMON FRASER UNIVERSITY, priority 2005, published 2008).
# “Also recorded” adds a separate entry of the source.
# Test system: O-GlcNAc-modified proteins in COS-7 cells
# Experiment: Western blot of O-GlcNAc-modified proteins in COS-7 cells cultured with inhibitors
# Type: cell-based
# Conditions: 50 μM inhibitor
# Description: COS-7 cells were cultured in DMEM medium (Invitrogen) supplemented with 5-10% FBS (Invitrogen). Aliquots of inhibitors (50 μL of a stock in 95% ethanol) were delivered onto tissue culture plates and the ethanol was evaporated. The cells were incubated at 37° C. for 40 hours at which time they reached approximately 80% confluence. […] COS-7 cells were cultured to 25% confluence in 5% FBS and an aliquot (100 μL) of inhibitor dissolved in media and filter sterilized was added to each plate to yield a final concentration of 50 μM of inhibitor. COS-7 cells (2×10 cm plates) were harvested at the appropriate times by scraping and were pooled by centrifugation (200×g, 10 min). Cells were washed once with PBS, pH 7.0 (10 mL) and pelleted (200×g, 10 min). The cells could be frozen at −80° C. at this point. Control cultures without inhibitors were treated in the same manner.
# A culture of control cells was treated in the same manner as follows but the cultures contained no inhibitor. Cells were harvested as described above. Frozen cells were thawed at 4° C., and cold lysis buffer (1 mL of 50 mM Tris, pH 8.0 containing 150 mM NaCl, 1 mM EDTA, 1 mM PMSF, 1% NP-40, 0.5% sodium deoxycholate, and 1 mM of inhibitor 90) was added. After 10 minutes at 4° C. the solution was centrifuged at 14,000 rpm in an Eppendorf 5415C microcentrifuge and the supernatant was collected. SDS/PAGE loading buffer was added to an aliquot (15 μL) of each sample, and after heating at 96° C. aliquots were loaded onto 10% or 12% Tris-HCl polyacrylamide gels. After electrophoresis, the samples were electroblotted to nitrocellulose membrane (0.45 μm, Bio-Rad). Transfer was verified by visual inspection of the transfer of prestained markers (Dual Colour Precision Plus Protein Standard—Biorad). The membrane was blocked by using 5% BSA (fraction V, Sigma) in PBS (blocking buffer A for samples probed with mouse anti-O-GlcNAc monoclonal IgM antibody (MAb CTD 110.6—Covance)) or 5% low-fat dry powdered milk (blocking buffer B for samples probed with anti-β-actin), pH 7.4, containing 0.1% Tween 20 for 1 h at room temperature or overnight at 4° C. The blocking solution was decanted, and a solution of blocking buffer A containing MAb CTD 110.6 (1:2500 of the stock) or blocking buffer B containing mouse monoclonal anti-β-actin IgG (Clone AC-40—Sigma) was added (1:1000 dilution) as appropriate. The membrane was incubated at room temperature for 1 h or overnight at 4° C. after which the blocking buffer was decanted and the membrane was rinsed with PBS, pH 7.4, containing 0.1% Tween 20 (wash buffer). Membranes were then rinsed for 2×5 min and 3×15 min with wash buffer. For immunological detection of O-GlcNAc, the membrane was incubated in blocking buffer A for 1 hour at RT and, after washing, the membrane was incubated with a secondary goat anti-mouse-IgM-HRP-conjugate (1:2500, Santa Cruz Biotech) for one hour at RT or 4° C. overnight in blocking solution. For detection of β-actin levels, the membrane was incubated with a secondary goat anti-mouse-IgG-HRP conjugate (1:100000, Sigma) for one hour at RT or 4° C. overnight in blocking solution B. Membranes were washed and detection of membrane bound goat anti-mouse-IgG-HRP conjugate was accomplished by chemiluminescent detection using the SuperSignal West Pico Chemiluminescent Detection Kit (Pierce) and film (Kodak Biomax MR).
smiles,measurement,setting,value
"CCCC1=N[C@@H]2[C@@H](O)[C@H](O)[C@@H](CO)O[C@@H]2S1 [Compound 9c, 1,2-dideoxy-2′-propyl-α-D-glucopyranoso-[2,1-d]-2′-thiazoline]",cellular levels of O-GlcNAc-modified proteins compared to control,"40 hours, Western blot",Marked increases; also recorded: increase in cellular levels of O-GlcNAc-modified proteins
same,levels of O-GlcNAc-modified proteins after one hour of exposure,one hour,increases in levels of O-GlcNAc-modified proteins were observed
same,levels of O-GlcNAc-modified proteins as a function of time,over 40 hours,clear time dependent increase
